In patent publication US20230340011A1 (Asteroid Therapeutics, priority 2022, published 2023):

These molecules were tested against SREBP-2 (Homo sapiens (Human), UniProt Q12772) (assay: In vitro assay SREBP-2: PathHunter U2OS SREBP-2 Nuclear Translocation Cell Line, U18666A-stimulated). Conditions: not given.
Assay type: cell-based

| Structure (SMILES) | IC50 |
| --- | --- |
| C[C@H](CCC(=O)N1CCN(C(=O)OC2COC2)CC1)[C@H]1CC[C@H]2[C@@H]3CC=C4C[C@@H](O)CC[C@]4(C)[C@H]3CC[C@]12C [Example 425, oxetan-3-yl4-((R)-4-((3S,8S,9S,10R,13R,14S,17R)-3-hydroxy-10,13-dimethyl-2,3,4,7,8,9,10,11,12,13,14,15,16,17-tetradecahydro-1H-cyclopenta[a]phenanthren-17-yl)pentanoyl)piperazine-1-carboxylate] | < 250 nM |

Same assay, conditions: PathHunter U2OS SREBP-2 nuclear translocation cells, U18666A 10 μM, overnight (16 hours)

| Structure (SMILES) | IC50 |
| --- | --- |
| C[C@H](Oc1cnccc1CO)[C@H]1CC[C@H]2[C@@H]3CC=C4C[C@@H](O)CC[C@]4(C)[C@H]3CC[C@]12C [Example 268, (3S,8S,9S,10R,13S,14S,17S)-17-((S)-1-((4-(hydroxymethyl)pyridin-3-yl)oxy)ethyl)-10,13-dim ethyl-2,3,4,7,8,9,10,11,12,13,14,15,16,17-tetradecahydro-1H-cyclopenta[a]phenanthren-3-ol] | 250 to 1000 nM |
| CC(C)C1(O)CCN(C(=O)CC[C@@H](C)[C@H]2CC[C@H]3[C@@H]4CC=C5C[C@@H](O)CC[C@]5(C)[C@H]4CC[C@]23C)CC1 [Example 149, (R)-4-((3S,8S,9S,10R,13R,14S,17R)-3-hydroxy-10,13-dimethyl-2,3,4,7,8,9,10,11,12,13,14,15,16,17-tetradecahydro-1H-cyclopenta[a]phenanthren-17-yl)-1-(4-hydroxy-4-isopropylpiperidin-1-yl) pentan-1-one] | < 250 nM |
| C[C@H](CCC(=O)N1CCC[C@@H](Oc2cnn(C)c2)C1)[C@H]1CC[C@H]2[C@@H]3CC=C4C[C@@H](O)CC[C@]4(C)[C@H]3CC[C@]12C [Example 518, (4R)-4-[(1R,3aS,3bS,7S,9aR,9bS,11aR)-7-hydroxy-9a,11a-dimethyl-1H,2H,3H,3aH,3bH,4H,6H,7H,8H,9H,9aH,9bH,10H,11H,11aH-cyclopenta[a]phenanthren-1-yl]-1-[(3R)-3-[(1-methyl-1H-pyrazol-4-yl)oxy]piperidin-1-yl]pentan-1-one] | < 250 nM |
| CNC(=O)c1ccncc1O[C@@H](C)[C@H]1CC[C@H]2[C@@H]3CC=C4C[C@@H](O)CC[C@]4(C)[C@H]3CC[C@]12C [Example 265, 3-((S)-1-((3S,8S,9S,10R,13S,14S,17S)-3-hydroxy-10,13-dimethyl-2,3,4,7,8,9,10,11,12,13,14,15,16,17-tetradecahydro-1H-cyclopenta[a]phenanthren-17-yl)ethoxy)-N-methylisonicotinamide] | 1000 to 10000 nM |
| C[C@H](Oc1cncc(CO)c1)[C@H]1CC[C@H]2[C@@H]3CC=C4C[C@@H](O)CC[C@]4(C)[C@H]3CC[C@]12C [Example 269, (3S,8S,9S,10R,13S,14S,17S)-17-((S)-1-((5-(hydroxymethyl)pyridin-3-yl)oxy)ethyl)-10,13-dim ethyl-2,3,4,7,8,9,10,11,12,13,14,15,16,17-tetradecahydro-1H-cyclopenta[a]phenanthren-3-ol] | 250 to 1000 nM |
| CCN(CC)C(=O)C(=O)O[C@@H](C)[C@H]1CC[C@H]2[C@@H]3CC=C4C[C@@H](O)CC[C@]4(C)[C@H]3CC[C@]12C [Example 154, (1S)-1-[(1S,3aS,3bS,7S,9aR,9bS,11aS)-7-hydroxy-9a,11a-dimethyl-1H,2H,3H,3aH,3bH,4H,6H,7H,8H,9H,9aH,9bH,10H,11H,11aH-cyclopenta[a]phenanthren-1-yl]ethyl (diethylcarbamoyl)formate] | < 250 nM |
| CC(=O)N1CCC2(C1)CN(C(=O)CC[C@@H](C)[C@H]1CC[C@H]3[C@@H]4CC=C5C[C@@H](O)CC[C@]5(C)[C@H]4CC[C@]13C)C2 [Example 327, (4R)-4-[(1R,3aS,3bS,7S,9aR,9bS,11aR)-7-hydroxy-9a,11a-dimethyl-1H,2H,3H,3aH,3bH,4H,6H,7H,8H,9H,9aH,9bH,10H,11H,11aH-cyclopenta[a]phenanthren-1-yl]-1-{6-acetyl-2,6-diazaspiro[3.4]octan-2-yl}pentan-1-one] | 250 to 1000 nM |
| C[C@H](CCC(=O)N1CC[C@H](NC(=O)c2cnccn2)C1)[C@H]1CC[C@H]2[C@@H]3CC=C4C[C@@H](O)CC[C@]4(C)[C@H]3CC[C@]12C [Example 529, N—((S)-1-((R)-4-((3S,8S,9S,10R,13R,14S,17R)-3-hydroxy-10,13-dimethyl-2,3,4,7,8,9,10,11,12,13,14,15,16,17-tetradecahydro-1H-cyclopenta[a]phenanthren-17-yl)pentanoyl)pyrrolidin-3-yl)pyrazine-2-carboxamide] | < 250 nM |
| C[C@H](CCC(=O)N(C)OCCCC(F)(F)F)[C@H]1CC[C@H]2[C@@H]3CC=C4C[C@@H](O)CC[C@]4(C)[C@H]3CC[C@]12C [Example 32, (R)-4-((3S,8S,9S,10R,13R,14S,17R)-3-hydroxy-10,13-dimethyl-2,3,4,7,8,9,10,11,12,13,14,15,16,17-tetradecahydro-1H-cyclopenta[a]phenanthren-17-yl)-N-methyl-N-(4,4,4-trifluorobutoxy)pentanamide] | 250 to 1000 nM |
| CNC(=O)c1ccnc(OC[C@@H](C)[C@H]2CC[C@H]3[C@@H]4CC=C5C[C@@H](O)CC[C@]5(C)[C@H]4CC[C@]23C)c1 [Example 450, 2-((S)-2-((3S,8S,9S,10R,13S,14S,17R)-3-hydroxy-10,13-dimethyl-2,3,4,7,8,9,10,11,12,13,14,15,16,17-tetradecahydro-1H-cyclopenta[a]phenanthren-17-yl)propoxy)-N-methylisonicotinamide] | < 250 nM |
| C[C@H](OC(=O)N(C)C)[C@H]1CC[C@H]2[C@@H]3CC=C4C[C@@H](O)CC[C@]4(C)[C@H]3CC[C@]12C [Example 242, (1S)-1-[(1S,3aS,3bS,7S,9aR,9bS,11aS)-7-hydroxy-9a,11a-dimethyl-1H,2H,3H,3aH,3bH,4H,6H,7H,8H,9H,9aH,9bH,10H,11H,11aH-cyclopenta[a]phenanthren-1-yl]ethyl N,N-dimethylcarbamate] | 250 to 1000 nM |
| Cc1noc(C(=O)N[C@H]2CCN(C(=O)CC[C@@H](C)[C@H]3CC[C@H]4[C@@H]5CC=C6C[C@@H](O)CC[C@]6(C)[C@H]5CC[C@]34C)C2)n1 [Example 527, N—((S)-1-((R)-4-((3S,8S,9S,10R,13R,14S,17R)-3-hydroxy-10,13-dimethyl-2,3,4,7,8,9,10,11,12,13,14,15,16,17-tetradecahydro-1H-cyclopenta[a]phenanthren-17-yl)pentanoyl)pyrrolidin-3-yl)-3-methyl-1,2,4-oxadiazole-5-carboxamide] | < 250 nM |
| Cc1cncc(O[C@@H](C)[C@H]2CC[C@H]3[C@@H]4CC=C5C[C@@H](O)CC[C@]5(C)[C@H]4CC[C@]23C)c1 [Example 272, (3S,8S,9S,10R,13S,14S,17S)-10,13-dimethyl-17-((S)-1-((5-methylpyridin-3-yl)oxy)ethyl)-2,3,4,7,8,9,10,11,12,13,14,15,16,17-tetradecahydro-1H-cyclopenta[a]phenanthren-3-ol] | < 250 nM |
| CC(=O)NC1CN(C(=O)CC[C@@H](C)[C@H]2CC[C@H]3[C@@H]4CC=C5C[C@@H](O)CC[C@]5(C)[C@H]4CC[C@]23C)C1 [Example 326, N-{1-[(4R)-4-[(1R,3aS,3bS,7S,9aR,9bS,11aR)-7-hydroxy-9a,11a-dimethyl-1H,2H,3H,3aH,3bH,4H,6H,7H,8H,9H,9aH,9bH,10H,11H,11aH-cyclopenta[a]phenanthren-1-yl]pentanoyl]azetidin-3-yl}acetamide] | 250 to 1000 nM |
| C[C@H](CCC(=O)N(C)Cc1ccccn1)[C@H]1CC[C@H]2[C@@H]3CC=C4C[C@@H](O)CC[C@]4(C)[C@H]3CC[C@]12C [Example 542, (4R)-4-[(1R,3aS,3bS,7S,9aR,9bS,11aR)-7-hydroxy-9a,11a-dimethyl-1H,2H,3H,3aH,3bH,4H,6H,7H,8H,9H,9aH,9bH,10H,11H,11aH-cyclopenta[a]phenanthren-1-yl]-N-methyl-N— [(pyridin-2-yl)methyl]pentanamide] | 250 to 1000 nM |
| Cc1noc(C2CCN(C(=O)CC[C@@H](C)[C@H]3CC[C@H]4[C@@H]5CC=C6C[C@@H](O)CC[C@]6(C)[C@H]5CC[C@]34C)CC2)n1 [Example 505, (R)-4-((3S,8S,9S,10R,13R,14S,17R)-3-hydroxy-10,13-dimethyl-2,3,4,7,8,9,10,11,12,13,14,15,16,17-tetradecahydro-1H-cyclopenta[a]phenanthren-17-yl)-1-(4-(3-methyl-1,2,4-oxadiazol-5-yl)piperidin-1-yl)pentan-1-one] | < 250 nM |
| C[C@H](CCC(=O)N1CCN(C(N)=O)CC1)[C@H]1CC[C@H]2[C@@H]3CC=C4C[C@@H](O)CC[C@]4(C)[C@H]3CC[C@]12C [Example 4, 4—((R)-4-((3S,8S,9S,10R,13R,14S,17R)-3-hydroxy-10,13-dimethyl-2,3,4,7,8,9,10,11,12,13,14,15,16,17-tetradecahydro-1H-cyclopenta[a]phenanthren-17-yl)pentanoyl)piperazine-1-carboxamide] | < 250 nM |
| C[C@H](CCC(=O)N1CC[C@H](NC(=O)c2ccncn2)C1)[C@H]1CC[C@H]2[C@@H]3CC=C4C[C@@H](O)CC[C@]4(C)[C@H]3CC[C@]12C [Example 528, N—((S)-1-((R)-4-((3S,8S,9S,10R,13R,14S,17R)-3-hydroxy-10,13-dimethyl-2,3,4,7,8,9,10,11,12,13,14,15,16,17-tetradecahydro-1H-cyclopenta[a]phenanthren-17-yl)pentanoyl)pyrrolidin-3-yl)pyrimidine-4-carboxamide] | < 250 nM |
| COC(=O)N1CCN(C(=O)OC[C@@H](C)[C@H]2CC[C@H]3[C@@H]4CC=C5C[C@@H](O)CC[C@]5(C)[C@H]4CC[C@]23C)CC1 [Example 465, 1-(2S)-2-[(1R,3aS,3bS,7S,9aR,9bS,11aS)-7-hydroxy-9a,11a-dimethyl-1H,2H,3H,3aH,3bH,4H,6H,7H,8H,9H,9aH,9bH,10H,11H,11aH-cyclopenta[a]phenanthren-1-yl]propyl 4-methyl piperazine-1,4-dicarboxylate] | < 250 nM |
| C[C@H](CCC(=O)N1CCC(O)(C(F)F)CC1)[C@H]1CC[C@H]2[C@@H]3CC=C4C[C@@H](O)CC[C@]4(C)[C@H]3CC[C@]12C [Example 128, (R)-1-(4-(difluoromethyl)-4-hydroxypiperidin-1-yl)-4-((3S,8S,9S,10R,13R,14S,17R)-3-hydroxy-10,13-dimethyl-2,3,4,7,8,9,10,11,12,13,14,15,16,17-tetradecahydro-1H-cyclopenta[a]phenanthren-17-yl)pentan-1-one] | < 250 nM |
